Two compounds from patent publication US12410209B2, “Modified glucocorticoids” (Board of Regents, The University of Texas System, priority 2021, dated 2025) can be followed below.

Common to all, as to type: cell-based, human
One experiment has as its system Met4 cells. Nature of the experiment: MTT assay for cell viability. The settings on record: cancerous Met4 cells, range of concentrations, FIG. 2.
The subject of the next experiment is IL-1β mRNA. Put plainly: qPCR analysis of LPS-induced IL-1β mRNA. The note with it: HaCat cells, LPS-induced inflammation, FIG. 5. The text has this: qPCR analysis is shown FIG. 5.
(In qPCR the cycle at which signal appears reflects the starting amount.)

The subject of a further experiment is HaCaT cells. Put plainly: MTT assay for cell viability. The note with it: for sensitivity of cells to glucocorticoid treatment (cell proliferation): normal HaCaT cells compared to cancerous PM1 and Met4 cells. (Tetrazolium assays rely on reduction of a dye to a coloured formazan, in cell work by metabolically active cells.)
A further experiment deals with PM1 cells. Put plainly: MTT assay for cell viability. The settings on record: cancerous PM-1 cells, range of concentrations, FIG. 2.

With `C[C@]12CCC(=O)C=C1CC[C@@H]1[C@@H]2[C@@H](F)C[C@@]2(C)[C@H]1CC[C@]2(O)C(=O)CO` [F-MOD, 11-deoxyfluorocortisol], the “potency against cell proliferation compared with cortisol” value in the experiment on Met4 cells is recorded as “at least as powerful as the original cortisol”; in the experiment with HaCaT cells (normal HaCaT cells, range of concentrations, FIG. 2), “at least as powerful as the original cortisol”; in the experiment on PM1 cells, “at least as powerful as the original cortisol if not stronger”. The “LPS-induced increase of inflammatory cytokine IL-1β” value in the experiment with IL-1β mRNA is “significantly suppressed”. Besides, the “sensitivity of cells to glucocorticoid treatment (cell proliferation)” value in the experiment with HaCaT cells is on record as “more sensitive”.

With `C[C@]12CCC(=O)C=C1CC[C@@H]1[C@@H]2[C@@H](O)C[C@@]2(C)[C@H]1CC[C@]2(O)C(=O)CO` [cortisol, reference compound], in the experiment with IL-1β mRNA, the “LPS-induced increase of inflammatory cytokine IL-1β” value is reported as “significantly suppressed”. Also, the “sensitivity of cells to glucocorticoid treatment (cell proliferation)” value in the experiment with HaCaT cells is on record as “more sensitive”.
